Each block holds one compound with its values, some of them ahead of it.
Columns and labels:
[1] = tested on: L-type amino acid transporter (LAT1); set-up: method as in PMID 30048132; conditions: cited from earlier work
[2] = molecular target: T1, sodium-iodine symporter (NIS) in thyroids (Rattus norvegicus, UniProt Q63008); assay: Dynamic [^18F]NaBF4 PET/CT of the hyperplastic thyroid, time-activity curve; type: in vivo
T1 construct: It was injected into the tail veins of rats; from tissue; host or cells: thyroid (hyperplastic, perchlorate-treated) of living Wistar rats
T1 sequence (Q63008 1-618): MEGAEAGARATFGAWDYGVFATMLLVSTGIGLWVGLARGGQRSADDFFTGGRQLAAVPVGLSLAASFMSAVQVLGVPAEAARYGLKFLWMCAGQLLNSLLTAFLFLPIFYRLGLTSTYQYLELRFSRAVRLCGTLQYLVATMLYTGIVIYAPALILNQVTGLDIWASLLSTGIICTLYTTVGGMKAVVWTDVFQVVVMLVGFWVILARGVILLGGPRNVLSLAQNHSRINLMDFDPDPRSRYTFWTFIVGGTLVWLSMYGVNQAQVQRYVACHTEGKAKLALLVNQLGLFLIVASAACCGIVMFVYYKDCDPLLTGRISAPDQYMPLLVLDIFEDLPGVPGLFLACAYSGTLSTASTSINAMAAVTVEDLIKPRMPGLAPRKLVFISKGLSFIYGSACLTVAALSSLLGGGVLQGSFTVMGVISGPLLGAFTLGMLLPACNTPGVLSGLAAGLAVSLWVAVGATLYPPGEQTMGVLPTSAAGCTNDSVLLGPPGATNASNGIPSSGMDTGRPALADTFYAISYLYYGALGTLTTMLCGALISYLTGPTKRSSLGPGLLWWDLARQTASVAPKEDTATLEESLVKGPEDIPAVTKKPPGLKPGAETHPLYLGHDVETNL
Experimental: Female Wistar rats, aged 16–17 weeks old and weighing 200–220 g at the study starting moment, were kept in pathogen-free cages at the animal facilities of the School of Medicine (University of Seville, Seville, Spain) under controlled laboratory conditions (temperature 20 ± 2 °C, humidity 40–50%, lighting regimen of 12 light/12 dark hours). Animals were fed a normal laboratory diet (Teklad diet, Envigo, Cambridgeshire, UK) and fresh tap water ad libitum. The study was approved by the Ethical Committee of the Faculty of Medicine, University of Seville. Animal handling was conducted following the Guide for the Care and Use of Laboratory Animals. Rats were divided into two equal groups: the control group and the treated group. Animals from the treated group received 1% potassium perchlorate (w/v) in the drinking water, ad libitum, for […]. All experiments were carried with the approval of the ethics committee of the University of Seville.
PET imaging was carried out in a Mosaic microPET scanner (Philips, Andover, MA, USA) followed by a CT scan in NanoCT (Bioscan/Mediso, Budapest, Hungary). Briefly, animals were anesthetized with isoflurane. A catheter was placed in the tail vein. A radiotracer (41 MBq) was injected with a maximum limit of 5 mL/kg in a bolus injection. […]

[3] = molecular target: T1, sodium-iodine symporter (NIS) in thyroids; assay: Two-tissue compartment kinetic modeling of the tracer in the thyroid VOI (PMOD PKIN); type: in vivo; conditions: two-tissue compartment model, hyperplastic thyroid
From the text: The kinetic modeling of the tracer in VOIs was done using two tissue compartment models shown in Equation (1). Cp is the activity concentration of the tracer in the plasma, C1 and C2 are concentrations in two compartments, k are the kinetic constants, and t is time. The kinetic modeling was done in the PMOD module PKIN using full blood as the input function, with linear interpolation between experimental points taken from the dynamic image of the left ventricle of the heart.
(1) dC2(t)/dt=k3C1(t)−k4C2(t)dC1(t)/dt=K1Cp(t)−(k2 + k3)C1(t) + k4C2(t)

[4] = Calculation of boron concentration in thyroid from PET activity concentration and production data; type: in vivo, rat
From the text: As injection solution of the [^18F]NaBF4 tracer contains the majority of unlabeled NaBF4; from the NaBF4 molar concentration in the synthesis solution, we could know the labeled to unlabeled tracer compound concentration ratio at the beginning of the PET study. […] The boron concentration is known only with the spatial resolution of the PET image, which in the Mosaic scanner case is about 2.3 mm. The microscopic details of the boron concentration were inferred from NIS immunofluorescence, assuming that the BF4^− concentration is only significant in NIS-containing cells.
Briefly, at the radiotracer production stage, the mass of NaBF4, Milli-Q water, and activity and volume of the [^18F]F^- Milli-Q water solution arriving from the cyclotron are known. Correcting for ^18F decay during the production and time needed for injection, with the known volume and activity of the produced and injected [^18F]NaBF4 tracer, we can calculate the amount of NaBF4 left from the production stage in the tissue from the activity concentration expressed initially as maximum local value of standard uptake value (SUVmax), then recalculated to kBq/mL and, then, to the molar concentration of ^18F at the beginning of the PET study.
To calculate the boron concentration, we start from calculating the ^18F molar concentration in the product to be injected. At the end of synthesis (EOS, decay-corrected to PET study start), we received 4.3 GBq of [^18F]NaBF4 in 2 mL of saline. As the activity concentration A is A=N/τ , where N is the number of ^18F atoms and τ=t1/2/ln(2) , t1/2 of ^18F being 109.7 min expressed in seconds, and diluted in 25.9 mL of Milli-Q water, we obtained 33.9 nM of [^18F]NaBF4 at the EOS and 351 µM of unlabeled NaBF4. We can calculate the molar concentration in the hyperplasia maximum from the maximum of the curve in Figure 3: 2.3 MBq/mL. […] Dividing the calculated concentration of [^18F]NaBF4 36.8 pM by 9.7 × 10^−5, we receive, therefore, a 381 nM boron concentration, which is […] of the fraction of required 2 mM ^10B concentration for BNCT treatment.

[5] = molecular target: T1, sodium-iodine symporter (NIS) in thyroids; set-up: method as in PMID 20577737; conditions: cited from earlier work
thyroid gland = assay: [^18F]FDG PET/CT of the thyroid gland; type: in vivo, rat
Experimental: PET imaging was carried out in a Mosaic microPET scanner (Philips, Andover, MA, USA) followed by a CT scan in NanoCT (Bioscan/Mediso, Budapest, Hungary). Briefly, animals were anesthetized with isoflurane. A catheter was placed in the tail vein. A radiotracer (41 MBq) was injected with a maximum limit of 5 mL/kg in a bolus injection. In dynamic studies, this was done already in the PET scanner on a heated animal bed (Équipement Vétérinaire MINERVE, Esternay, France). For static studies, animals were awakened and let up for 45-min radiotracer uptake. Then, the animal was anesthetized again and placed in the heated bed of the PET scanner. The dynamic scans were of 90 min centered in the thyroids; the static ones were three beds of 10 cm longitudinal lengths starting from the head towards the tail. Each bed position was scanned for 15 min. CT scans were acquired in 45 kVp with 177 µA at 500 ms exposition and 240 projections per rotation.
PET images were reconstructed using an iterative method with decay, scatter, and random corrections without attenuation correction. […] CT images were reconstructed using the filtered back-projection method with an exact cone-beam and with a Shepp Logan 98% filter, giving a 0.2 mm uniform pixel size. […]

[6] = Estimated concentration in the blood after injection; type: in vivo; conditions: rat
Experimental: The initial concentration of NaBF4 in the blood after injection of 110 mg/kg in the rat is about 16 mM, but as it can be seen from Figure 3, it is expected to drop fast to about 25% at 90 min—that is, to 4 mM. BPA is injected at doses of 500 mg/kg, which in rats, results in an initial concentration in the blood of 37 mM. The transporter of BPA is L-type amino acid transporter (LAT1), which for the most similar compound, phenylalanine has an IC50 of about 60 µM [20]. This is a […] of magnitude higher concentration in the blood for phenylalanine, and BPA still allows reaching therapeutic boron concentrations in the tumor.

NIS = tested on: NIS; set-up: method as in PMID 21085047; conditions: cited from earlier work

Compound: N[C@@H](Cc1ccccc1)C(=O)O [phenylalanine]
IC50 [1]: ~60 µM

capture in bones ([2]; PET): no capture in bones
peak activity concentration in thyroid ([2]; hyperplastic thyroid, about 17 min after injection): 2.3 MBq/mL
Flux [3]: 0.28
K1 [3]: 1.89
Kl/k2 [3]: 3.60
Vs (distribution volume of the specific binding) [3]: 3.96
Vt (distribution volume) [3]: 7.56
k2 [3]: 0.52
k3 [3]: 0.09
k3/k4 (nondisplaceable binding potential, BPND) [3]: 1.1
k4 [3]: 0.08
molar concentration of [^18F]NaBF4 in thyroid at peak ([4]; hyperplasia maximum, from 2.3 MBq/mL): 36.8 pM
Compound: F[B-](F)(F)F.[Na+] [[^18F]NaBF4]
stability in vivo [5]: stable in vivo

Compound: OC[C@H]1OC(O)[C@H]([18F])[C@@H](O)[C@@H]1O (stereo partly drawn) [[^18F]FDG, [^18F]fluorodeoxyglucose]
uptake in control and hyperplastic thyroid (thyroid gland; control thyroid and thyroid with hyperplasia): neither the control nor thyroid with hyperplasia show an abnormal uptake
SUVmax in thyroid tumor (thyroid gland; thyroid tumor): two

fraction of the required 2 mM ^10B concentration reached ([4]; 381 nM boron in hyperplastic thyroid): 19 × 10^−5
boron concentration in thyroid with hyperplasia ([4]; at peak, after 53 nmol (21 µg/kg) NaBF4 injected): 381 nM
concentration in the blood at 90 min ([6]; 110 mg/kg, expected): 4000 µM
concentration in the blood at 90 min as fraction of initial ([6]; expected from Figure 3 blood curve): about 25%
Compound: F[B-](F)(F)F.[Na+] [NaBF4]
IC50 (NIS): 1.6 µM

Source: paper PMC7563863, “Quantification of Boron Compound Concentration for BNCT Using Positron Emission Tomography” (Cells, 2020)
